According to patent US20050064382A1, “Method of prevention of lysosomal leakage in eukaryotic cells by using 6-methyluracil based water-soluble compounds and method of producing thereof” (priority 2002, published 2005):

Columns and labels:
MEL cells [1] = assay: Cell recovery after short-term and long-term storage at −135° C.; type: cell-based, mouse; details: for numbers of cells per ml, Short-Term Storage: 3 days at −135° C.; for numbers of cells per ml, Long-Term Storage: six weeks at −135° C.
Procedure: The cells were then brought to −135° C. over a two-hour period, and stored at this temperature for 3 days (short term) or six weeks (long term). The cells were then thawed quickly by incubation at 37° C., washed twice with growing medium, re-suspended in 5 ml and incubated at 37° C. for 24 hours. The numbers of cells per ml. is x 10^4, two different assays. […]

MEL cells [2] = assay: Moderate damage: storage three days at −135° C. then growth in 1% DMSO; type: cell-based, mouse; details: 24 hours
Procedure: The cells were then brought to −135° C. over a two-hour period and stored at this temperature for 3 days. […] The number of cells per ml. is x 10^4, columns represent different assays.

THP-1 cells [3] = assay: Longer-duration growth of THP-1 cells after DMSO shock and starvation, live cells; type: cell-based, human
Procedure: Growth was measured after the administration of “DMSO Shock” and without a change of medium. […] Trypan-blue test was used: the number of live cells per 0.1 ml (based on 4 counting iterations).

Intact MEL cells = assay: Cell toxicity of Glucural in intact conditions: growth of MEL; type: cell-based, mouse; details: for number of cells per ml, Regular conditions: 24 hours
[4] = system: Human umbilical cord vein endothelial cells (HUCVEC); assay: HUCVEC Assay 1: enzymatic and mechanical damage; type: cell-based; details: after 7 days, without change of medium
Procedure: Glucural was also tested on two primer cell cultures for protection against cell death in sub-optimal conditions.
Human umbilical cord vein endothelial cells (HUCVEC) were isolated from freshly obtained human umbilical cords in accordance with known methods. HUCVEC were grown in multi-well plates. After saturation of the wells, the assays were initiated. Four wells were used for each experimental group. To cause “mechanical” damage, a higher (2-2½ times) centrifugal speed was used to pick up cells after trypsin treatment. To cause enzymatic damage, full-strength trypsin solution was used instead of the recommended diluted concentration. All assays were started from the last change of medium in wells with saturated cell culture (well bottoms were covered completely by cells). Results were estimated from the percentage of the bottom covered by cells on the last day of the assay.
Assay 1. Enzymatic and mechanical damage to cells: Growth after 7 days, without change of medium.

THP-1 cells [5] = assay: Long-term growth of THP-1 cells without change of medium (starvation); type: cell-based, human
[6] = system: skeletal (rear leg) muscle homogenates; assay: Proteolytic index of muscle homogenates (autoproteolysis, Ninhidrin); type: biochemical, rat
Procedure: In-vitro tests were performed on the skeletal (rear leg) muscles of 17 white laboratory rats. Preliminary research efforts determined 1) the preparation method for muscle homogenates, 2) estimation of level of the proteolytic activity by measuring for the concentration of free amino acids, a result of protein cleavage, and 3) the optimal time of authoproteolysis.
The preparation of muscle homogenates. Efforts were made to disassemble the muscle tissue gently, without disruption of the lysosomes, though with sufficient strength to ensure a homogeneous suspension of muscle cells in physiological solution (PBS). Potter's homogenator was used with a glass barrel and a Teflon pestle. Determination of the optimal treatment was based on experimental data and the activity of the proteases during the incubation of the homogenates at 37° C. If lysosomes were damaged during preparation of the homogenates, then there was no increase in concentration of free amino acids during incubation. Undamaged lysosomes in the homogenate would continue their proteolytic activity during incubation. For the best preparation of the homogenate, the muscles were separated from the connecting tissue, weighed and cut up with scissors in a Petri dish for 10 minutes. […]
After the incubation of samples, the protein concentration was estimated by the standard Bio-Rad method. To estimate proteolytic activity based on the concentration of free amino acids found in the sample, three methods were tried: 1) absorbance at 280 nm, 2) concentration of amino acid tyrosine by estimation with Folin reagent, and 3) concentration of end amino groups with Ninhidrin reagent. Only method 3 provided accurate results, so the proteolytic index was measured based on the Ninhidrin reagent. […] Samples were boiled in a water bath for 10 minutes, chilled and the absorbance at 560 nm was measured. […] Concentrations of free amino acids and protein in mg/ml could therefore be determined for both cases. The ratio of free amino acids per proteins in the sample was calculated as the proteolytic index. […]

Substance: complex of 2,4-dihydroxy-6-methylpyrimidine with N-methyl-D-glucamine [Glucural]
- effect during short-term storage (MEL cells [1]): little or no effect
- numbers of cells per ml, Short-Term Storage (MEL cells [1]; Glucural 10 mkg/ml): 34 ± 4 x 10^4
- numbers of cells per ml, Long-Term Storage (MEL cells [1]; Glucural 10 mkg/ml): 122 ± 8 x 10^4
- numbers of cells per ml, Short-Term Storage (MEL cells [1]; Glucural 25 mkg/ml): 38 ± 2 x 10^4
- numbers of cells per ml, Long-Term Storage (MEL cells [1]; Glucural 25 mkg/ml): 167 ± 3 x 10^4
- numbers of cells per ml, Short-Term Storage (MEL cells [1]; Glucural 50 mkg/ml): 33 ± 2 x 10^4
- numbers of cells per ml, Long-Term Storage (MEL cells [1]; Glucural 50 mkg/ml): 200 ± 12 x 10^4
- numbers of cells per ml, Short-Term Storage (MEL cells [1]; Glucural 100 mkg/ml): 37 ± 2 x 10^4
- numbers of cells per ml, Long-Term Storage (MEL cells [1]; Glucural 100 mkg/ml): 169 ± 15 x 10^4
- numbers of cells per ml, Short-Term Storage (MEL cells [1]; Glucural 200 mkg/ml): 56 ± 5 x 10^4
- numbers of cells per ml, Long-Term Storage (MEL cells [1]; Glucural 200 mkg/ml): 155 ± 14 x 10^4
- increase of cell survival rates during long-term storage (MEL cells [1]; optimal concentration of about 50 mkg/ml): over 3 times
- number of cells per ml, Moderate damage (MEL cells [2]; Glucural 25 mkg/ml): 58 ± 3 x 10^4
- number of cells per ml, Moderate damage (MEL cells [2]; Glucural 50 mkg/ml): 76 ± 1 x 10^4
- number of cells per ml, Moderate damage (MEL cells [2]; Glucural 100 mkg/ml): 82 ± 1 x 10^4
- number of cells per ml, Moderate damage (MEL cells [2]; Glucural 200 mkg/ml): 163 ± 3 x 10^4
- optimal dose for THP-1 cells (THP-1 cells [3]): 25 mkg/ml
- number of live cells per 0.1 ml (THP-1 cells [3]; B Control + Glucural 25 mkg/ml, assay #1, 5 days growing): 241 ± 24 per 0.1 ml
- number of live cells per 0.1 ml (THP-1 cells [3]; B Control + Glucural 25 mkg/ml, assay #3, 4 days growing): 136 ± 5 per 0.1 ml
- number of live cells per 0.1 ml (THP-1 cells [3]; B Control + Glucural 25 mkg/ml, assay #4, 4 days growing): 160 ± 22 per 0.1 ml
- number of live cells per 0.1 ml (THP-1 cells [3]; D DMSO shock + Glucural 25 mkg/ml, assay #1, 5 days growing): 228 ± 48 per 0.1 ml
- number of live cells per 0.1 ml (THP-1 cells [3]; D DMSO shock + Glucural 25 mkg/ml, assay #2, 6 days growing): 184 ± 19 per 0.1 ml
- number of live cells per 0.1 ml (THP-1 cells [3]; D DMSO shock + Glucural 25 mkg/ml, assay #3, 4 days growing): 137 ± 6 per 0.1 ml
- number of live cells per 0.1 ml (THP-1 cells [3]; D DMSO shock + Glucural 25 mkg/ml, assay #4, 4 days growing): 222 ± 42 per 0.1 ml
- number of cells per ml, Regular conditions (Intact MEL cells; Glucural 25 mkg/ml): 67 ± 1 x 10^4
- number of cells per ml, Regular conditions (Intact MEL cells; Glucural 50 mkg/ml): 68 ± 1 x 10^4
- number of cells per ml, Regular conditions (Intact MEL cells; Glucural 100 mkg/ml): 71 ± 2 x 10^4
- number of cells per ml, Regular conditions (Intact MEL cells; Glucural 200 mkg/ml): 58 ± 3 x 10^4
- number of cells per ml, Regular conditions (Intact MEL cells; Glucural 400 mkg/ml): 69 ± 5 x 10^4
- influence on cells in regular conditions (Intact MEL cells; Glucural from 25 to 400 mkg/ml): no influence
- Percent of well-bottom covered by cells ([4]; Glucural 40 mkg/ml): 2-5%
- Percent of well-bottom covered by cells ([4]; Glucural 400 mkg/ml): 70-80%
- percentage of dead cells (trypan blue test) (THP-1 cells [5]; Glucural 10 mkg/ml, 3 days of growing): 2.1 ± 0.5%
- percentage of dead cells (trypan blue test) (THP-1 cells [5]; Glucural 10 mkg/ml, 4 days of growing): 7.2 ± 1.3%
- percentage of dead cells (trypan blue test) (THP-1 cells [5]; Glucural 10 mkg/ml, 10 days of growing): 10.7 ± 0.2%
- percentage of dead cells (trypan blue test) (THP-1 cells [5]; Glucural 10 mkg/ml, 14 days of growing): 15.3 ± 0.2%
- percentage of dead cells (trypan blue test) (THP-1 cells [5]; Glucural 20 mkg/ml, 3 days of growing): 5.5 ± 0.25%
- percentage of dead cells (trypan blue test) (THP-1 cells [5]; Glucural 20 mkg/ml, 4 days of growing): 0%
- percentage of dead cells (trypan blue test) (THP-1 cells [5]; Glucural 20 mkg/ml, 10 days of growing): 10.85 ± 0.35%
- percentage of dead cells (trypan blue test) (THP-1 cells [5]; Glucural 20 mkg/ml, 14 days of growing): 15.3 ± 0.5%
- decrease of proteolytic activity in muscles ([6]; Glucural 50 mkg/ml (Group 4)): 36%
- decrease of proteolytic activity in muscles ([6]; Glucural 100 mkg/ml (Group 5)): 51%
- reduction of autoproteolysis ([6]; Glucural less than 50 mkg/ml): not sufficient to reduce autoproteolysis
